# Experimental data taken from patent publication US9670217B2, “Process for preparing chlorins and their pharmaceutical uses” (UNIVERSIDADE DE COIMBRA, priority 2008, dated 2017).
# Tests used:
# Type in all cases: cell-based
# S91I3 (mouse melanoma) = experiment: Cell photosensitization, 748 nm diode laser, resazurin; details: 6 J/cm^2 diode laser irradiation at 28.5 mW
# Protocol: The cell lines employed in laser irradiation were the HT-29 (human colon carcinoma), PC-3 (human prostate carcinoma), SW2 (human small cell lung cancer), A-549 (human non-small cell lung cancer). S91/I3 (mouse melanoma) and CT26 (mouse colon carcinoma). They were used both for cytotoxicity and photocytotoxicity experiments. PC-3. SW2 and S91113 cells were cultured in RPMI-1640 medium (Sigma-Aldrich, Steinheim, Germany) and HT-29, A-549 and CT26 cells were cultured in Dulbecco's Modified Eagle Medium (DMEM) (Cambrex Bioscience, Verviers, Belgium). Both cell culture mediums were supplemented with 10% heat-inactivated Fetal Bovine Serum (FBS) (Cambrex Bioscience, Verviers, Belgium) and 100 IU/ml penicillin-100 μg/ml streptomycin (Cambrex Bioscience, Verviers, Belgium). […] For the in vitro studies, cells at 85-90% confluence, were detached with Trypsin-Versene-EDTA solution (Cambrex Bioscience, Verviers, Belgium), counted and seeded in flat-bottom 96-well plates at the desired densities.
# Cell viability assay. In the end of the experiences cell viability was evaluated by the resazurin reduction assay. […] The absorbance values of each well were measured at 540 nm and 630 nm using a microplate reader Multiskan Ex (Thermo-Electron Corporation, Vartaa, Finland).
# Cell photosensitization. […] Cell viability was evaluated approximately 24 h after the irradiation.
# [1] = test system: MCF7 (human breast carcinoma); experiment: Cell photosensitization, filtered halogen lamp, MTT
# Protocol: (§1) Irradiation in in vitro experiments was performed using either a halogen lamp or a laser source. In the first case, a 500 W halogen lamp was placed 50 cm from the irradiated plate to insure a homogeneous irradiation. A cooled water filter (d=35 mm) and a 600 nm cut off filter were placed between the lamp and samples. The fluence rate reaching samples was 3 mW/cm^2. The emission spectrum of the halogen lamp was recorded using a spectroradiometer IL2000 (Spectrocube), FIG. 1. In the second case, three Lynx external cavity diode lasers TEC 500 powered by PilotPC 500 Laser Controllers (Sacher Lasertechnik, Marburg, Germany) were employed. The laser energies were stable at 40 mW for the 748 nm laser, 10 mW for the 649 laser and 10 mW for the 633 laser. The laser energies were regularly measured with a Coherent LaserCheck. In some in vitro experiments, the laser light was focused on an optical fiber through a collimator in microbench, and delivered to the cells. This system reduced the 748 nm laser light to 30 mW.
# (§2) The cell lines employed in halogen lamp irradiation were the MCF7 (human breast carcinoma), SKMEL 188 (human melanoma) and S91/I3 (mouse melanoma) cells. They were used both for cytotoxicity and photocytotoxicity experiments. MCF7 cells were grown supplemented with 10% fetal calf (FBS) serum, 25 units/ml of penicillin, and 25 μg/ml of streptomycin. Human melanoma cells SKMEL-188 were grown in F10 medium supplemented with 10% fetal calf serum (FCS), 100 units/ml of penicillin, and 100 μg/ml of streptomycin. I3 subline of Cloudman S91 melanoma cells were cultured in RPMI 1640 medium supplemented with 100 units/ml of penicillin, 100 μg/ml streptomycin and 5% fetal calf serum (FCS) (Gibco BRL). All cell lines were cultivated as monolayer in Petri dishes of 60 mm diameter and incubated at 37° C. in a humid atmosphere containing 5% CO2.
# (§3) Cytotoxicity. Cell metabolic efficiency and viability were determined by the uptake and reduction of 3-(4,5-dimethylthiazol-2-yl)-2,5-diphenyl tetrazolium bromide (MTT) to an insoluble formazan dye by cellular microsomal enzymes. The cell lines were grown in RPMI medium with 10% fetal calf serum, penicillin and streptomycin. Cells were maintained in 5% CO2, 95% air and 100% humidity. For determining cytotoxicity, these cells were plated in 96-well plates at a density of 1×10^4 cells well in complete media. After 24 h, the cells were incubated with photosensitizers at different concentrations (0.25 up to 50 μM) for 18 hours at 37° C. The cells were then washed twice with PBS and incubated in growth medium at 37° C. for 24 h. Next, the medium was replaced by 100 μl of fresh medium and 20 μl of MTT, and the cells were incubated with MTT for 3 h, with a final concentration of 0.5 mg/ml. Then the culture medium was replaced with DMSO-methanol solution (1:1) to dissolve the blue formazan crystals. The 96-well culture plate was shaken for 0.5 min at room temperature and immediately read for optical density at 560 nm using an ELISA reader (GENios Plus; Tecan Trading AG, Switzerland). The cell survival was expressed by the absorbance changes of the formazan salt, and survival rate was given as the percent ratio of viable treated cells vs. the number of viable untreated cells. Number of cells was determined from linear regression of a calibration curve.
# (§4) Cell photosensitization. SKMEL 188, S91 and MCF7 cells were prepared as described above. […] The cells were incubated for 12 h at 37° C. and then irradiated at a 0.53 mW cm^2 fluence rate and in doses ranging from 0.1 to 0.64 J cm^2. We recall that photosensitizer uses only ca. ⅕ of the available fluence rate of the filtered halogen lamp. The MTT test was performed 24 h after irradiation. The values were obtained from three independent experiments and expressed as percent of cell survival with reference to control cells, which were manipulated in the same manner but without incubation with photosensitizer and without illumination. […]
# S91 (mouse melanoma) = experiment: as above; details: [Luzitin-Cl] = 20 μM
# Protocol: as §1, §2, §3, §4
# [2] = [Luzitin-Cl] = 20 μM, filtered halogen lamp
SMILES,concentration of sensitizer required to kill 90% of cells (LD90) (S91I3 (mouse melanoma)) [µM],"cell kill ([1]; 5 μM, filtered halogen light 0.6 J/cm^2, 12 h incubation) [%]","LD50 (light dose to kill 50% of the cells) [1, 2] [J/cm^2]","LD90 (light dose to kill 90% of the cells) [1, 2] [J/cm^2]",LD50 (light dose to kill 50% of the cells) (S91 (mouse melanoma)) [J/cm^2],LD90 (light dose to kill 90% of the cells) (S91 (mouse melanoma)) [J/cm^2]
"O=S(=O)(O)c1ccc(Cl)c(-c2c3nc(c(-c4c(Cl)ccc(S(=O)(=O)O)c4Cl)c4ccc([nH]4)c(-c4c(Cl)ccc(S(=O)(=O)O)c4Cl)c4nc(c(-c5c(Cl)ccc(S(=O)(=O)O)c5Cl)c5ccc2[nH]5)CC4)CC3)c1Cl [Luzitin-Cl2, 5,10,15,20-tetrakis(2,6-dichloro-3-sulfonylphenyl)bacteriochlorin]",40,–,–,–,–,–
"O=S(=O)(O)c1ccc(Cl)c(-c2c3nc(c(-c4cc(S(=O)(=O)O)ccc4Cl)c4ccc([nH]4)c(-c4cc(S(=O)(=O)O)ccc4Cl)c4nc(c(-c5cc(S(=O)(=O)O)ccc5Cl)c5ccc2[nH]5)CC4)CC3)c1 [Luzitin-Cl, 5,10,15,20-tetrakis(2-chloro-5-sulfonylphenyl)bacteriochlorin]",–,100,0.08,0.25,0.15,0.3
